Tested on: 276233-004-R-J1-PDC spheroids with HUVEC/MSC, viability
Experiment: Anticancer human tumor 276233-004-R-J1-PDC patient-derived colon adenocarcinoma cell line growth inhibition [TAK]
Settings: for IC50: curve of first compound; for viability, T/C: stronger effect = lower value
Method in brief: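 Drug combinations, each paired with TAK-243 or ipatasertib, were tested on multi-cell spheroids of 60% malignant cells, 25% HUVEC and 15% hMSC. Top concentrations were at or near the clinical Cmax (10 microM if undetermined), decreasing by half-log; viability is given as % test/control.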
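Further: spheroids exposed to drugs for seven days before the viability read.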

## COc1c(OCCCN2CCOCC2)ccc2c3n(c(=NC(=O)c4cnc(N)nc4)nc12)CCN3 + CC(C)NCC(C(=O)N1CCN(c2ncnc3c2C(C)CC3O)CC1)c1ccc(Cl)cc1
Second compound 0.3 µM
  IC50: 0.0313 µM
Second compound 0.949 µM
  IC50: 0.029 µM
Second compound 3 µM
  IC50: 0.0264 µM
Second compound 9.49 µM
  IC50: 0.0215 µM
Second compound 30 µM
  IC50: < 0.00316 µM
Second compound 0.3 µM, first compound 0.00316 µM
  viability, T/C: 74.1%
Second compound 0.3 µM, first compound 0.01 µM
  viability, T/C: 78.6%
Second compound 0.3 µM, first compound 0.0316 µM
  viability, T/C: 49.7%
Second compound 0.3 µM, first compound 0.1 µM
  viability, T/C: 41.8%
Second compound 0.3 µM, first compound 0.316 µM
  viability, T/C: 43.7%
Second compound 0.3 µM, first compound 1 µM
  viability, T/C: 52.2%
Second compound 0.949 µM, first compound 0.00316 µM
  viability, T/C: 67%
Second compound 0.949 µM, first compound 0.01 µM
  viability, T/C: 59.8%
Second compound 0.949 µM, first compound 0.0316 µM
  viability, T/C: 51.5%
Second compound 0.949 µM, first compound 0.1 µM
  viability, T/C: 36.3%
Second compound 0.949 µM, first compound 0.316 µM
  viability, T/C: 37.6%
Second compound 0.949 µM, first compound 1 µM
  viability, T/C: 49.3%
Second compound 3 µM, first compound 0.00316 µM
  viability, T/C: 66.8%
Second compound 3 µM, first compound 0.01 µM
  viability, T/C: 53.3%
Second compound 3 µM, first compound 0.0316 µM
  viability, T/C: 46.8%
Second compound 3 µM, first compound 0.1 µM
  viability, T/C: 46%
Second compound 3 µM, first compound 0.316 µM
  viability, T/C: 41.5%
Second compound 3 µM, first compound 1 µM
  viability, T/C: 61.7%
Second compound 9.49 µM, first compound 0.00316 µM
  viability, T/C: 60.5%
Second compound 9.49 µM, first compound 0.01 µM
  viability, T/C: 48.3%
Second compound 9.49 µM, first compound 0.0316 µM
  viability, T/C: 52.5%
Second compound 9.49 µM, first compound 0.1 µM
  viability, T/C: 43%
Second compound 9.49 µM, first compound 0.316 µM
  viability, T/C: 44%
Second compound 9.49 µM, first compound 1 µM
  viability, T/C: 38.4%
Second compound 30 µM, first compound 0.00316 µM
  viability, T/C: 34%
Second compound 30 µM, first compound 0.01 µM
  viability, T/C: 34.5%
Second compound 30 µM, first compound 0.0316 µM
  viability, T/C: 33.2%
Second compound 30 µM, first compound 0.1 µM
  viability, T/C: 32.9%
Second compound 30 µM, first compound 0.316 µM
  viability, T/C: 25.9%
Second compound 30 µM, first compound 1 µM
  viability, T/C: 41.5%

Reference: PubChem BioAssay AID2060359 (Molecular Pharmacology Branch, DTP, NCI, 2025)
